PMC2933614, “Quantitative in vitro and in vivo pharmacological profile of CE-178253, a potent and selective cannabinoid type 1 (CB1) Receptor Antagonist” (BMC Pharmacology, 2010)
“Also recorded” adds a separate entry of the source. Read-outs that look alike come from different tables or passages of the source.

Columns and labels:
[1] = molecular target: Vanilloid 1 (TRPV1) receptor channel (Homo sapiens, UniProt Q8NER1); assay: TRPV1 functional assay; format: biochemical; details: range 9-13%, n = 2
Excerpt: (§1) Rimonabant also binds weakly to the Vanilloid 1 (TRPV1) receptor channel. […] CE-178253 was not evaluated against TRPM8. Rimonabant has been reported to bind to TRPM8 [21].

[2] = tested on: other receptors, ion channels, and uptake sites (Table 2); assay: Binding panel at 1 μM; details: any site of Table 2
Excerpt: as §1

[3] = Unbound plasma concentration of CE-178253; format: in vivo, rat; details: for Unbound Plasma Concentration (± S-D): indirect calorimetry study; for concentration at […]: Sprague-Dawley, rat, plasma, oral, fast-induced refeeding study, read-out: Unbound Plasma Concentration (± S-D)
Procedure: Plasma bound fractions for CE-178253 were determined using an equilibrium dialysis assay, as previously described. Spectra-Por 2 membranes (Spectrum Laboratories Inc., Rancho Dominguez, CA) with a molecular cut-off of 12-14 kDa were used for the dialysis. Equilibrium of the system was achieved by incubating the apparatus for 4.5 hr in a 37°C reciprocating water bath (set at 155 rpm). A standard curve was set up over the range 1-1000 ng/mL. All samples were quantified using liquid chromatography/tandem mass spectrometry using a PE Sciex API 3000 spectrometer. For plasma, the unbound fraction was determined as the ratio of concentrations determined in buffer and plasma.

[4] = Rat oral PK studies; format: in vivo
[5] = molecular target: GPR55 (Homo sapiens, UniProt Q9Y2T6); assay: GPR55 functional assay; format: biochemical; details: 10 μM
Excerpt: as §1

[6] = molecular target: T1, human CB1 receptor (Homo sapiens, UniProt P21554); assay: Competition radioligand binding, human CB1
T1 construct: expressed in transfected cells
Procedure: HEK293 (CB1) or CHO (CB1 and CB2) cells (ATCC) were stably transfected with the human CB1 or CB2 receptors. Rat brain, and recombinant CB1 and CB2 and membranes were prepared as described. A Pierce™ BCA kit was used to determine protein concentrations.
10 μg of membranes per well from human CB1 and CB 2 receptor transfected cells and rat brain was used in the assay. The plates were covered and placed in an incubator at 30°C for 60 min. At the end of the incubation period 125 μl of stop buffer (10% BSA plus TME) was added to the reaction plate. The plates were then harvested onto GF/C filter plates (Perkin Elmer Life Sciences) presoaked in BSA (5 mg/ml) plus TME. Each filter was washed twice with TME and dried overnight. In the morning the filters were counted on a Wallac Trilux™ counter.
(§2) Saturation and competition radioligand binding assays were used to characterize membranes prepared from human recombinant CB1 and CB2 and rat brain membranes.

[7] = molecular target: T2, human CB1 in CHO cells (Homo sapiens, UniProt P21554); assay: GTPγ[35S] functional assay, antagonism of CP-55940 stimulation, Schild analysis; format: biochemical
T2 construct: expressed in transfected cells
Procedure: GTPγ[^35S] binding assays were performed as described. GTPγ[^35S] binding assays were performed in a 96-well FlashPlate™ format in duplicate using 100 pM GTPγ[^35S] and 10 μg membrane per well in assay buffer composed of 50 mM Tris HCl (pH 7.4); 3 mM MgCl2 (pH 7.4); 10 mM MgCl2, 20 mM EGTA, 100 mM NaCl, 30 μM GDP, 0.1% BSA and the following protease inhibitors: 100 μg/ml bacitracin, 100 μg/ml benzamidine, 5 μg/ml aprotinin, and 5 μg/ml leupeptin. […] Assays were performed at 30°C for 1 hr. The FlashPlates™ were then centrifuged at 2000×g for 10 min. Stimulation of GTPγ[^35S] binding was then quantified using a Wallac Microbeta® [16].
as §2

[8] = Four day DIO rat food intake and body weight study; format: in vivo; details: 4-day, DIO rats
Procedure: Male 15 week old S-D rats which had been maintained on a high fat diet (Research Diets, D12079BM, 45% kcal from fat) for 10 weeks were selected for the DIO weight loss study. DIO rats were singly housed were acclimated to handling and dosing and two days of food intake were recorded to establish baseline food intake values before dosing was initiated. The heaviest animals were randomly sorted and assigned to treatment groups (n = 8 per group). The mean starting weight of all animals was 639 ± 8 g. Rats were dosed (2 mls/kg) with veh. or CE-178253 according to body weight. FI and BW were recorded daily.
DIO rats were treated once daily with veh. (0.5% MC) or CE-178253 at doses of 0.3 mg/kg p.o. or 1 mg/kg p.o. in a 4-day study (Figures 6A and 6B). […] The effects on FI were apparent after the first doses and sustained over the 4-day study period. […] In contrast, there was no change in weight in veh-treated rats. Initial and final body weights of veh-treated rats were 643 ± 15 g and 645 ± 14 g, respectively. Initial and final body weights of 0.3 mg/kg CE-178253-treated rats were 632 ± 11 g and 616 ± 12 g, respectively. Initial and final body weights of 1 mg/kg CE-178253-treated rats were 637 ± 11 g and 602 ± 11 g, respectively. A statistically significant difference in BW between veh and the 1 mg/kg dose was observed (p < 0.05).

T2 sequence (P21554 whole entry): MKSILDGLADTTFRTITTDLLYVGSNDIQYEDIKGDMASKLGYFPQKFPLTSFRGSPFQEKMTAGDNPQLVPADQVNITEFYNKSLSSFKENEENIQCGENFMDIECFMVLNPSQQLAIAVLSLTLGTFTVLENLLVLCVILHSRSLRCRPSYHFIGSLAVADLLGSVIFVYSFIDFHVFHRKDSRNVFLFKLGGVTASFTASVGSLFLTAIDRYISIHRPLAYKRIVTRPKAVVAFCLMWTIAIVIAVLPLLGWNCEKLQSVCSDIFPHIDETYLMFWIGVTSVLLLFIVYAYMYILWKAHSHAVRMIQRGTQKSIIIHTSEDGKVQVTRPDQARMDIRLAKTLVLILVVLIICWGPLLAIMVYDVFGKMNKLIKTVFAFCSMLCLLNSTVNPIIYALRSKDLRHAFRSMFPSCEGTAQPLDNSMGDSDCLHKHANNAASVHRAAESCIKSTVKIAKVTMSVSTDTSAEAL
T1 sequence (P21554 whole entry): as above
Sequence of GPR55 (Q9Y2T6 whole entry, species assumed): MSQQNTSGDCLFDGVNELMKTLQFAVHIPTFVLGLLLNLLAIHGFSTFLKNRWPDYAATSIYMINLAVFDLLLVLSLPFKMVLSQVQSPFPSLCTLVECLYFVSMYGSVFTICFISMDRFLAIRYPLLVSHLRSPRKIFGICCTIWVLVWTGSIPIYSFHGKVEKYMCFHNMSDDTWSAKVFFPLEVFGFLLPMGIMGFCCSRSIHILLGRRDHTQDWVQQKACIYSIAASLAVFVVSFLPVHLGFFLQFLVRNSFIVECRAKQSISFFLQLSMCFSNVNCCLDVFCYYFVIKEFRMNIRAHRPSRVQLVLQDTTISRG
Sequence of Vanilloid 1 (TRPV1) receptor channel (Q8NER1 whole entry, species assumed): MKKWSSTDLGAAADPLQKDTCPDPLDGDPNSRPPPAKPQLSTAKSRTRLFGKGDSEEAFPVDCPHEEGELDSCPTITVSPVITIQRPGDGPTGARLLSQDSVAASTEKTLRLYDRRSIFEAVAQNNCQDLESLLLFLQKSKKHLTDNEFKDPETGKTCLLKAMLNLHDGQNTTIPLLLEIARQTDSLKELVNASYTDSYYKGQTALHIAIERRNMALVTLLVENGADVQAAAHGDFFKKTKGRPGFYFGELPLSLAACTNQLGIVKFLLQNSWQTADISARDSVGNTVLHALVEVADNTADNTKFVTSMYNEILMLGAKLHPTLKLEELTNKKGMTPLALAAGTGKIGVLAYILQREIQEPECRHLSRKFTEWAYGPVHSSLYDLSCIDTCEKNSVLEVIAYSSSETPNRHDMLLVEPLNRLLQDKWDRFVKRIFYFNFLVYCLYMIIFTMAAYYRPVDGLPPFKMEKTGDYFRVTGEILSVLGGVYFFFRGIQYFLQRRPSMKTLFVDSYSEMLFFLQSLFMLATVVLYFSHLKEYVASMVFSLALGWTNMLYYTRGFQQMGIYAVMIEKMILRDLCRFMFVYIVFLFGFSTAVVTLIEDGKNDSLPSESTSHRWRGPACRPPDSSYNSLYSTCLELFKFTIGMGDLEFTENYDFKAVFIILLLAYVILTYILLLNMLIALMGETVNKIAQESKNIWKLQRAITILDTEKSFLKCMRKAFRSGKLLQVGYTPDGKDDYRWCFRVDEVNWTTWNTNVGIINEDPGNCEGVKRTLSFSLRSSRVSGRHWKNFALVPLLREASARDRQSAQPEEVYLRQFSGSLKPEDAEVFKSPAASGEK

- inhibition at 10 µM [1]: 11%
- Inhibition of binding at panel sites [2]: ≤ 50%
- Unbound Plasma Concentration (± S-D) ([3]; 1 mg/kg p.o.): 0.8 ± 0.2 nM
- Unbound Plasma Concentration (± S-D) ([3]; 3 mg/kg p.o.): 3.8 ± 0.9 nM
- concentration at […] ([3]; 0.3 mg/kg p.o.): 0.17 ± 0.02 nM
- concentration at […] ([3]; 1 mg/kg p.o.): 1 ± 0.3 nM
- concentration at […] ([3]; 3 mg/kg p.o.): 2.7 ± 1 nM
- concentration at […] ([3]; 10 mg/kg p.o.): 15.6 ± 1.6 nM
- Exposure in chow-fed versus DIO rats ([4]; PK studies): no differences in exposure
- Tmax ([4]; Sprague Dawley, rat, in vivo, oral, data not shown): 1 h
- Concentration giving complete inhibition of [3H]SR141716A binding ([6]; not shown): greater than 10 nM
- Ki ([6]; read-out: Ki, competition binding, hCB1): 0.33 ± 0.07 nM
- Kb ([7]; GTPγ[35S] assay): 0.63 nM
- Slope ([7]; GTPγ[35S] functional assay, Schild slope): 0.83
- Ki ([7]; inhibition of CP-55940-stimulated GTPγ[35S] binding, read-out: Antagonist Ki, GTPγ[35S] functional assay): 0.07 ± 0.01 nM
Structure (SMILES): CCNC1(C(N)=O)CN(c2nc(C)nc3c(-c4ccc(Cl)cc4)c(-c4ccccc4Cl)nn23)C1 [CE-178253]
- Agonist activity at GPR55 [5]: No agonist activity was detected; also recorded: GPR55 (no activity at 10 μM)
- Decrease in body weight compared to veh ([8]; 0.3 mg/kg p.o. once daily): 3.3%
- Final body weight ([8]; 0.3 mg/kg, initial 632 ± 11 g): 616 ± 12 g
- Decrease in body weight compared to veh ([8]; 1 mg/kg p.o. once daily): 5.9%
- Final body weight ([8]; 1 mg/kg, initial 637 ± 11 g): 602 ± 11 g
